In ChEMBL document CHEMBL5360653, “Marine Alkaloid Lepadins E and H Induce Ferroptosis for Cancer Chemotherapy” (J Med Chem, 2023):
pIC50: −log10 of the molar value. Activity calls are given as the source filed them. The rule behind the calls is not given here.

Tests used:
HeLa [1] = assay: Induction of apoptosis in human HeLa cells assessed as late apoptotic cells incubated at 4 uM for 24 hrs measured by annexin V-PI staining based FITC analysis (reference value: 1.81%); assay type: functional
HeLa [2] = assay: Induction of apoptosis in human HeLa cells assessed as early apoptotic cells incubated at 6 uM for 24 hrs measured by annexin V-PI staining based FITC analysis (reference value: 3.59%); assay type: functional
HeLa [3] = assay: Induction of apoptosis in human HeLa cells assessed as necrotic cells incubated at 6 uM for 24 hrs measured by annexin V-PI staining based FITC analysis (reference value: 0.70%); assay type: functional
HeLa [4] = assay: Induction of apoptosis in human HeLa cells assessed as late apoptotic cells incubated at 8 uM for 24 hrs measured by annexin V-PI staining based FITC analysis (reference value: 1.81%); assay type: functional
HeLa [5] = assay: Induction of apoptosis in human HeLa cells assessed as necrotic cells incubated at 8 uM for 24 hrs measured by annexin V-PI staining based FITC analysis (reference value: 0.70%); assay type: functional
HeLa [6] = assay: Induction of apoptosis in human HeLa cells assessed as early apoptotic cells incubated at 10 uM for 24 hrs measured by annexin V-PI staining based FITC analysis (reference value: 3.59%); assay type: functional
HeLa [7] = assay: Induction of apoptosis in human HeLa cells assessed as late apoptotic cells incubated at 10 uM for 24 hrs measured by annexin V-PI staining based FITC analysis (reference value: 1.81%); assay type: functional
HeLa [8] = assay: Induction of apoptosis in human HeLa cells assessed as early apoptotic cells incubated at 10 uM for 24 hrs measured by annexin V-PI staining based FITC analysis (reference value: 2.72%); assay type: functional
HeLa [9] = assay: Induction of apoptosis in human HeLa cells assessed as necrotic cells incubated at 10 uM for 24 hrs measured by annexin V-PI staining based FITC analysis (reference value: 0.79%); assay type: functional
HeLa [10] = assay: Induction of apoptosis in human HeLa cells assessed as late apoptotic cells preincubated with PFTalpha followed by compound addition at 10 uM for 24 hrs measured by annexin V-PI staining based FITC analysis (reference value: 2.3%); assay type: functional
HeLa [11] = assay: Induction of ROS generation in human HeLa cells assessed as increase in ROS level at 20 uM incubated for 1 hrs (reference value: 39.6%); assay type: functional
HeLa [12] = assay: Induction of ferroptosis in human HeLa cells assessed as increase in density of mitochondrial membrane measured at 6 uM for 24 hrs by transmission electron microscopic analysis; assay type: functional, cell-based
HeLa [13] = assay: Induction of ferroptosis in human HeLa cells assessed as downregulation of GPX4 level measured at 4 to 10 uM for 24 hrs by Western blotting analysis; assay type: functional, cell-based; conditions: dose 4-10 µM
B16-F10 [14] = assay: Cytotoxicity against mouse B16-F10 cells incubated for 72 hrs by MTT assay; assay type: functional, cell-based; conditions: B16-F10, 72 h
B16-F10 [15] = assay: Induction of ferroptosis in mouse B16-F10 cells assessed as cell viability in presence of DFO at 10 uM; assay type: functional, cell-based
B16-F10 [16] = assay: Induction of ferroptosis in mouse B16-F10 cells assessed as cell viability in presence of liproxstatin-1 at 10 uM; assay type: functional, cell-based
B16-F10 [17] = assay: Induction of ferroptosis in mouse B16-F10 cells assessed as downregulation of SLC7A11 level measured at 4 to 10 uM by Western blotting analysis; assay type: functional, cell-based; conditions: dose 4-10 µM
B16-F10 [18] = assay: Induction of ferroptosis in mouse B16-F10 cells assessed as increase in ACSL4 level measured at 4 to 10 uM by Western blotting analysis; assay type: functional, cell-based; conditions: dose 4-10 µM
B16-F10 [19] = assay: Antitumor activity against mouse B16-F10 cells allografted in immunocompetent C57BL/6J mouse assessed as reduction of tumor growth administered at 30 mg/kg, ip daily for 14 days (reference value: 1500 mm^3); assay type: functional; conditions: time 14 day
[20] = Toxicity in immunocompetent C57BL/6J mouse allografted with B16-F10 cells assessed as change of organ index in heart administered at 30 mg/kg, ip daily for 14 days by hematoxylin and eosin staining analysis; assay type: organism-based; conditions: in vivo, 336 h, time 14 day
[21] = Toxicity in immunocompetent C57BL/6J mouse allografted with B16-F10 cells assessed as tissue damage in lungs administered at 30 mg/kg, ip daily for 14 days by hematoxylin and eosin staining analysis; assay type: organism-based; conditions: in vivo, 336 h, time 14 day
HeLa [22] = assay: Induction of apoptosis in human HeLa cells assessed as necrotic cells incubated at 4 uM for 24 hrs measured by annexin V-PI staining based FITC analysis (reference value: 0.58%); assay type: functional
HeLa [23] = assay: Induction of apoptosis in human HeLa cells assessed as early apoptotic cells incubated at 6 uM for 24 hrs measured by annexin V-PI staining based FITC analysis (reference value: 3.94%); assay type: functional
HeLa [24] = assay: Induction of apoptosis in human HeLa cells assessed as late apoptotic cells incubated at 6 uM for 24 hrs measured by annexin V-PI staining based FITC analysis (reference value: 1.54%); assay type: functional
HeLa [25] = assay: Induction of apoptosis in human HeLa cells assessed as necrotic cells incubated at 6 uM for 24 hrs measured by annexin V-PI staining based FITC analysis (reference value: 0.58%); assay type: functional
HeLa [26] = assay: Induction of apoptosis in human HeLa cells assessed as early apoptotic cells incubated at 8 uM for 24 hrs measured by annexin V-PI staining based FITC analysis (reference value: 3.94%); assay type: functional
HeLa [27] = assay: Induction of apoptosis in human HeLa cells assessed as necrotic cells incubated at 10 uM for 24 hrs measured by annexin V-PI staining based FITC analysis (reference value: 0.58%); assay type: functional
HeLa [28] = assay: Induction of apoptosis in human HeLa cells assessed as viable cells incubated at 10 uM for 24 hrs measured by annexin V-PI staining based FITC analysis (reference value: 91.6%); assay type: functional; conditions: read-out: Activity
HeLa [29] = assay: Induction of apoptosis in human HeLa cells assessed as early apoptotic cells preincubated with PFTalpha followed by compound addition at 10 uM for 24 hrs measured by annexin V-PI staining based FITC analysis (reference value: 3.28%); assay type: functional
HeLa [30] = assay: Induction of apoptosis in human HeLa cells assessed as necrotic cells preincubated with PFTalpha followed by compound addition at 10 uM for 24 hrs measured by annexin V-PI staining based FITC analysis (reference value: 1.6%); assay type: functional
HeLa [31] = assay: Induction of ROS generation in human HeLa cells assessed as increase in ROS level at 20 uM incubated for 0.5 hrs (reference value: 37.8%); assay type: functional

SMILES: CCC/C=C/C=C/C(=O)O[C@@H]1C[C@H]2[C@@H](CCCC[C@H](O)CCC)CCC[C@H]2N[C@H]1C
- Activity (HeLa [1]): 2.52%
- Activity (HeLa [2]): 6.71%
- Activity (HeLa [3]): 0.94%
- Activity (HeLa [4]): 2.28%
- Activity (HeLa [5]): 0.5%
- Activity (HeLa [6]): 66.3%
- Activity (HeLa [7]): 5.53%
- Activity (HeLa [8]): 31.8%
- Activity (HeLa [9]): 2.34%
- Activity (HeLa [10]): 19.5%
- Activity (HeLa [11]): 90.1%
- Activity (HeLa [12]): Active
- Activity (HeLa [13]): Active
- pIC50 (B16-F10 [14]): 5.50
- Activity (B16-F10 [15]): Active
- Activity (B16-F10 [16]): Active
- Activity (B16-F10 [17]): Active
- Activity (B16-F10 [18]): Active
- Activity (B16-F10 [19]): <500 mm3
- Activity [20]: Non-Toxic
- Activity [21]: Non-Toxic

SMILES: CCCCC/C=C/C(=O)O[C@@H]1C[C@H]2[C@@H](CCCC[C@H](O)CCC)CCC[C@H]2N[C@H]1C
- Activity (HeLa [22]): 0.53%
- Activity (HeLa [23]): 30.6%
- Activity (HeLa [24]): 3.62%
- Activity (HeLa [25]): 0.85%
- Activity (HeLa [26]): 20.9%
- Activity (HeLa [27]): 4.68%
- viability at 10 µM (HeLa [28]): 28%
- Activity (HeLa [29]): 31.9%
- Activity (HeLa [30]): 4.34%
- Activity (HeLa [31]): 80.6%
